Measured values published in patent US4209439A, “Stabilization of vinyl resins” (priority 1977, dated 1980).
Values joined by “and” are separate entries in the source; they are usually repeats but may differ in a detail not shown here. Equal values may be shown once. Each block holds one compound with its values, some of them ahead of it.

Experiments:
Format in all cases: physicochemical
[1] = migration of stabiliser from PVC bottles into water at 50° C.; settings: water 50° C.
Procedure: 2.2--Study of the migration
The migration or the extractability of the stabiliser from the PVC compound under the effect of various liquids (and particularly water) stored in a plastic container is of essential importance for the use of these stabilisers in the field of food packagings.
(§1) The technique as regards extraction was the following: using the formula which is given below, a batch of bottles (volume 1 liter, diameter 70 mm, height.perspectiveto.230 mm) was prepared, the said bottles being filled with a liquid simulating the foods. […] The migration of the stabiliser was judged by dosage of the pyridine present in the extractum, using the dosage method which is later described. This pyridine obviously represents the oxidised form of the extracted 1,4-dihydropyridine.
The investigation was particularly developed for water at 50° C. over a period of 2 months, because it represents the important problem regarding the packaging of mineral waters.
Formula for the manufacture of bottles
The S L 2016 is a solution of zinc 2-ethyl hexanoate in a mixture of aromatic hydrocarbons boiling from 158° to 184° C.
(§2) The stabilisers are measured out in the form of their oxidation product (pyridine).
(§3) The oxidation is made quantitative by adding a few drops of iodine to the solution. The latter is then extracted with chloroform and the chloroform is evaporated to a small residual volume. The solution obtained is then subjected to thin-film chromatography, by comparison with solutions of known concentration of the desired pyridines.
(§4) The sensitivity threshold of this technique is 5 μg/liter.

[2] = migration of stabiliser from PVC into solutions or solvents simulating foods at 50° C.; settings: H2O/NaCl (97:3), 0.3
Procedure: as §1, §2, §3, §4
For justifying the possibility of using the dihydropyridines (I) having a radical R comprising from 9 to 22 carbon atoms in applications concerned with food packaging, other than those applications relating to mineral waters, the extractability of the dihydropyridines by several solutions or solvents having the following composition, by weight, was investigated:
(a) water-sodium chloride: 97-3
(b) water-saccharose: 90-10
(c) water-sodium chloride-acetic acid: 98.5-0.5-1
(d) water-citric acid (solution at pH=5): 98-2
(e) water-acetic acid: 97-3
(f) water-acetic acid: 90-10
(h) water-acetic acid: 50-50

[3] = sublimation at 160° C. for 6 hours under nitrogen; settings: for % of sublimed product: 160° C., 6 hours, nitrogen; for sublimation: of the quantity of product being used
Procedure: A test sample of about 130 mg of the product to be investigated is introduced into a 100 cc beaker. The latter is placed in a 250 cc reactor. The temperature is kept at 160° C. by means of a thermostatically controlled oil bath for 6 hours, the atmosphere of the reactor being inert (nitrogen) in order to avoid the oxidation of the 1,4-dihydropyridine into pyridine, which is more sublimable.
For each dihydropyridine derivative which is investigated, the result is expressed as a percentage of sublimed product relatively to the quantity being used.

[4] = polarographic study of the oxidation potential (Example 30); settings: acetonitrile, lithium perchlorate; calomel electrode; in V (unit assumed)
Source text: 261. Polarographic study of the oxidation potential […]
reference electrode: a calomel electrode which contains, as junction liquid, a saturated solution of anhydrous lithium perchlorate working electrode: rotating electrode of vitreous carbon (2500 r.p.m.) counter-electrode: platinum. acetonitrile, having a water content smaller than 0.1% and not presenting any polarographic waves between -2.5 volts and +2.5 volts.
0.1 M solution of lithium perchlorate in acetonitrile, treated and preserved on a molecular screen of 4 A. […]
exploration amplitude: 0 to 2 V exploration speed: 10 mV/sec.

[5] = polarographic oxidation potential (Example 31); settings: 0.5 m.mole/liter; methanol/acetic acid; 35° C.
Procedure: platinum counter-electrode and calomel electrode with filling by a saturated aqueous solution of lithium chloride.
The measurements were carried out in the following solvent:
90 parts of an 0.1 M solution of lithium perchlorate in methanol, 10 parts of a 0.1 M solution of perchloric acid in acetic acid. square voltage superimposed with constant pulses of +10 millivolts, initial potential: 500 millivolts, scanning voltage: 1000 millivolts in the anode direction, oxidation at the vitreous carbon electrode (speed of rotation: 2000 r.p.m.)

% of sublimed product [3]: 98.1%
SMILES: CC1=C(C(=O)OC(C)C)CC(C(=O)OC(C)C)=C(C)N1 [L.28506]

% of sublimed product [3]: 79.1%
SMILES: CCCOC(=O)C1=C(C)NC(C)=C(C(=O)OCCC)C1 [L.28509]

% of sublimed product [3]: 1.7%
SMILES: CCCCCCCCCCOC(=O)C1=C(C)NC(C)=C(C(=O)OCCCCCCCCCC)C1 [L.28591]

Migration ([1]; 0.15 pct, 1 month): < 5 µg/L
Migration ([1]; 0.15 pct, 2 months): < 5 µg/L
Migration ([1]; 0.15 pct, 10 days): < 5 µg/L
Migration ([1]; 0.15 pct, 20 days): < 5 µg/L
Migration ([1]; 0.30 pct, 1 month): < 5 µg/L
Migration ([1]; 0.30 pct, 2 months): < 5 µg/L
Migration ([1]; 0.30 pct, 10 days): < 5 µg/L
Migration ([1]; 0.30 pct, 20 days): < 5 µg/L
Migration ([2]; 1 month): < 5 µg/L
Migration ([2]; 2 months): < 5 µg/L
% of sublimed product [3]: 1.2%
SMILES: CCCCCCCCCCCCCCCCCCOC(=O)C1=C(C)NC(C)=C(C(=O)OCCCCCCCCCCCCCCCCCC)C1 [L.28599, 2,6-Dimethyl-3,5-dicarbooctadecyloxy-1,4-dihydropyridine]

% of sublimed product [3]: 0.4%
SMILES: CCCCCCCCCCCCCCCCCCCCCCOC(=O)C1=C(C)NC(C)=C(C(=O)OCCCCCCCCCCCCCCCCCCCCCC)C1 [L.28601]

Oxidation potential [5]: 808 millivolts
SMILES: CCCCCCCC/C=C\CCCCCCCCOC(=O)C1=C(C)NC(C)=C(C(=O)OCCCCCCCC/C=C\CCCCCCCC)C1 [L.28602]

The remaining lines, values behind:

SMILES: c1ccc(-c2cc3ccccc3[nH]2)cc1 [2-phenyl indole, reference compound]
Migration ([1]; 0.30 pct, 1 month, listed as Control): 100 µg/L and 110 µg/L and 120 µg/L
Migration ([1]; 0.30 pct, 2 months, listed as Control): 100 µg/L and 110 µg/L and 130 µg/L
Migration ([1]; 0.30 pct, 10 days, listed as Control): 75 µg/L and 70 µg/L and 80 µg/L
Migration ([1]; 0.30 pct, 20 days, listed as Control): 90 µg/L and 100 µg/L
Migration ([2]; 1 month): 90 µg/L
Migration ([2]; 2 months): 140 µg/L
% of sublimed product [3]: 62%
sublimation [3]: 62%

SMILES: COc1ccc(O)cc1 [4-Methoxy phenol]
Oxidation potential [4]: 0.89 ± 0.01

SMILES: Oc1ccc(O)cc1 [Hydroquinone]
Oxidation potential [4]: 0.83 ± 0.01

SMILES: CCOC(=O)C1=C(C)NC(C)=C(C(=O)OCC)C1 [L.28501, 2,6-Dimethyl-3,5-dicarboethoxy-1,4-dihydropyridine]
Migration ([1]; 0.15 pct, 1 month): 100 µg/L
Migration ([1]; 0.15 pct, 2 months): 100 µg/L
Migration ([1]; 0.15 pct, 10 days): 20 µg/L
Migration ([1]; 0.15 pct, 20 days): 50 µg/L
Migration ([1]; 0.30 pct, 1 month): 150 µg/L
Migration ([1]; 0.30 pct, 2 months): 150 µg/L
Migration ([1]; 0.30 pct, 10 days): 90 µg/L
Migration ([1]; 0.30 pct, 20 days): 120 µg/L
Migration ([2]; 1 month): 120 µg/L
Migration ([2]; 2 months): 150 µg/L
% of sublimed product [3]: 82.9%
Oxidation potential [4]: 0.73 ± 0.01

SMILES: CCCCCCCCOC(=O)C1=C(C)NC(C)=C(C(=O)OCCCCCCCC)C1 [L.28502]
% of sublimed product [3]: 7.2%
sublimation [3]: 7%

SMILES: CCCCOC(=O)C1=C(C)NC(C)=C(C(=O)OCCCC)C1 [L.28552, 2,6-Dimethyl-3,5-dicarbobutoxy-1,4-dihydropyridine]
Migration ([1]; 0.15 pct, 1 month): 90 µg/L
Migration ([1]; 0.15 pct, 2 months): 100 µg/L
Migration ([1]; 0.15 pct, 10 days): 15 µg/L
Migration ([1]; 0.15 pct, 20 days): 40 µg/L
Migration ([1]; 0.30 pct, 1 month): 130 µg/L
Migration ([1]; 0.30 pct, 2 months): 130 µg/L
Migration ([1]; 0.30 pct, 10 days): 80 µg/L
Migration ([1]; 0.30 pct, 20 days): 120 µg/L
Migration ([2]; 1 month): 80 µg/L
Migration ([2]; 2 months): 100 µg/L
% of sublimed product [3]: 39.2%
